These results are taken from patent US20230322776A1, “NEW ARYL-PYRIDO-PYRIMIDIN-ONE DERIVATIVES” (Hoffmann-La Roche Inc., priority 2020, published 2023).

The structures appear in SMILES notation. Bounds are passed on as bounds.

One test has as its target BRAF (Homo sapiens, UniProt P15056). Description: KD BRAF (Table 1; no method described). It counts as binding.
Another test concerns the target BRAF V660E (Homo sapiens, UniProt P15056, V600E). Description: KD BRAF V660E (Table 1; no method described). The format is binding.
Test [1] deals with HCT116 cells (WT BRAF), ERK phospho-T202/Y204. Description: HTRF assay for P-ERK determination in HCT116 cells (BRAF activation, paradox). It counts as cell-based. As to conditions: for EC50: Homo sapiens, HCT-116, HCT116 cells, 1 hour drug incubation, activation relative to maximum Dabrafenib-mediated activation (100%), top concentration 10 μM, read-out: P-ERK_HCT-116: EC50—50PCT; for Fold Selectivity HCT-116 EC50-50/ A375: ratio of P-ERK HCT-116 EC50-50PCT to P-ERK A375 IC50. The text has this: (§1) A375 is a cellular cancer model expressing V600E mutated BRAF and HCT116 a cellular cancer model expressing WT BRAF. First generation BRAF inhibitors such as e.g. dabrafenib induce a paradox effect on tumour cells in that they inhibit the growth of V600E mutated BRAF cells (such as e.g. A375), while they activate growth in WT BRAF cells (such as e.g. HCT 116). ERK 1,2 phosphorylation (terminal member of the phosphorylation cascade of the MAPK pathway) is hereafter reported as main readout for the activation status of the MAPK pathway. DMEM no-phenol red medium supplemented with L-glutamine was purchased from (Thermo Fisher Scientific). Fetal bovine serum (FBS) was purchased from VWR. Advanced ERK phospho-T202/Y204 kit—10,000 tests was purchased from Cisbio cat #64AERPEH. A375 (catalog #CRL-1619) and HCT116 (catalog #CCL-247) cells were originally obtained from American type Culture Collection (ATCC) and banked by the Roche repository. 384-Well microplates ultized were purchased from Greiner Bio-One, 384-well, (With Lid, HiBase, Low volume cat 784-080).
(§2) HTRF Assay for P-ERK Determination in A375 or HCT116 Cells
(§3) Prior to the assay, A375 and HCT116 cell lines are maintained in DMEM no-phenol red medium supplemented with 10% fetal bovine serum (FBS). Following compound treatment, P-ERK levels are determined by measuring FRET fluorescence signal induced by selective binding of two antibodies provided in the mentioned kit (Cisbio cat #64AERPEH) on ERK protein when phosphorylated at Thr202/Tyr204. Briefly, 8000 cells/well in 12 μl media/well are plated in the 384-well plate and left overnight in the incubator (at 37° C. with 5% CO2-humidified atmosphere), the following day the plate is treated in duplicate with test compounds, dabrafenib and PLX8394 (the latter two as controls) at the following final drug concentrations: 10 μM, 3 μM, 1 μM, 0.3 μM, 0.1 μM, 0.03 μM, 0.01 μM, 0.003 μM and 0.001 μM. All wells are subjected to DMSO normalization and drug incubation occurs for 1 hour. Then, 4 μl of a 4× lysis buffer supplied with the kit are added to the wells, the plate is then centrifuged for 30 second (3000 rpm) and incubated on a plate shaker for 1 h at rt.
(§4) At the end of the incubation 4 μl/well of advanced P-ERK antibody solution (prepared according to manufacturer's instruction) followed by 4 μl/well of criptate P-ERK antibody solution (prepared according to manufacturer's instruction) (Cisbio cat #64AERPEH) are added to test wells.
(§5) In order to allow proper data normalization, control wells non drug treated reported in the following table are always included in each plate (according to manufacturer's instruction):
(§6) The plate is then centrifuged at 3000 rpm for 30 seconds, sealed to prevent evaporation and incubated overnight in the dark at room temperature. The plate is then analyzed and fluorescence emission value collected through a Pherastast FSX (BMG Labtech) apparatus at […]. The obtained fluorescence values are processed according to the formula Ratio=[…]*10000 then the average of the ratio on the blank is subtracted to all values.
Data are normalized in the case of HCT116 cells (BRAF activation) considering the average of the ratio (blank subtracted) derived by DMSO only treated cells as 0% and by considering the average of the ratio (blank subtracted) derived by Dabrafenib treated cells at the concentration which provides the highest signal as 100%. Individual points are fitted with either sigmoidal or bell shape curves, the percentage of activation compared to maximum Dabrafenib-mediated activation is determined.

Test [2] has as its system A375 cells (V600E mutated BRAF), ERK phospho-T202/Y204. Description: HTRF assay for P-ERK determination in A375 cells (BRAF inhibition). It counts as cell-based. The settings on record: Homo sapiens, A-375, 1 hour drug incubation, DMSO = 100%, 10 μM Dabrafenib = 0%, top concentration 10 μM, read-out: P-ERK_A375: IC50.
From the text: as §1, §2, §3, §4, §5, §6
Data are normalized in the case of A375 cells (BRAF inhibition) considering the average of the ratio (blank subtracted) derived by DMSO only treated cells as 100% and by considering the average of the ratio (blank subtracted) derived by 10 μM Dabrafenib treated cells as 0%. Mean of the normalized points are fitted with sigmoidal curve and IC50 values are determined.
In general terms: In TR-FRET formats the signal depends on donor and acceptor labels being close together.

BRAF V660E, sequence (P15056 2-766 V600E): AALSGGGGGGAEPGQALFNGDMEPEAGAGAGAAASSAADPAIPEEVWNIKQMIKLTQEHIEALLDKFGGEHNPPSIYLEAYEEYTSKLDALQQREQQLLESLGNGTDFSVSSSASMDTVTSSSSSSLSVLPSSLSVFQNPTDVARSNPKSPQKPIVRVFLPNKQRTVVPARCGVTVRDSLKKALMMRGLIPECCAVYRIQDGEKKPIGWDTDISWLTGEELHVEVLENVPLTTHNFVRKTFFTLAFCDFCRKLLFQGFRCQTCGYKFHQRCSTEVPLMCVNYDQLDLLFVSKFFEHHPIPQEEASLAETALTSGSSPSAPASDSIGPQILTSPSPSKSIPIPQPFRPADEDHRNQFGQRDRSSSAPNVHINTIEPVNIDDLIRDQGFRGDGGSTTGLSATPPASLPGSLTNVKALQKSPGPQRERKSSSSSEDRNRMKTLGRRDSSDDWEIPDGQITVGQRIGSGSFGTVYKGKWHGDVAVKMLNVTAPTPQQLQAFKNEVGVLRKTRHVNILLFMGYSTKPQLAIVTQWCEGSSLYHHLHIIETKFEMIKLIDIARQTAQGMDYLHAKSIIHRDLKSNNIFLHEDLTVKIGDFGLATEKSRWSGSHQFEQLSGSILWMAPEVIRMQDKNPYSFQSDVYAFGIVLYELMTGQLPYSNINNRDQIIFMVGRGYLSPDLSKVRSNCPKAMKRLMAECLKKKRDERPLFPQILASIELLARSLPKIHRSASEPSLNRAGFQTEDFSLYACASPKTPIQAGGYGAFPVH
BRAF, sequence (P15056 whole entry): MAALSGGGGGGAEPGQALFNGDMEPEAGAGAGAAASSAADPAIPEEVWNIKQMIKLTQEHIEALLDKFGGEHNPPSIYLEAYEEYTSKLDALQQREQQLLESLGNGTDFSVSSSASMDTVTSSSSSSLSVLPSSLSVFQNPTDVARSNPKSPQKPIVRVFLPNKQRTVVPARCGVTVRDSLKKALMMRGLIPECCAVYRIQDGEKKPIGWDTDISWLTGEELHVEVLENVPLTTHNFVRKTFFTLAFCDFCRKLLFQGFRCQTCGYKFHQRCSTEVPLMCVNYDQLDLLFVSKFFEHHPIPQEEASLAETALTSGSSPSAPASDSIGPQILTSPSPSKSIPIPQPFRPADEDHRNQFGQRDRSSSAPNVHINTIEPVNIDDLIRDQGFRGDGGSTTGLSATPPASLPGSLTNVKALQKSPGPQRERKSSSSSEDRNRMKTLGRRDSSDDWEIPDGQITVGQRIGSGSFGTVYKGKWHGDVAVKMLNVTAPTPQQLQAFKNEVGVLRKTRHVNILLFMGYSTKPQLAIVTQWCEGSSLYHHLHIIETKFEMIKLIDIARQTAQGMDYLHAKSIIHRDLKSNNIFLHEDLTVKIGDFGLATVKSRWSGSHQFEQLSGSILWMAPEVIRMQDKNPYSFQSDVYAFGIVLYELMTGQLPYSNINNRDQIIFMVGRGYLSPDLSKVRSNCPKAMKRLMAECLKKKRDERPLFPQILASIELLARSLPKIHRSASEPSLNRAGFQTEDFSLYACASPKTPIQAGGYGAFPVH

A word on the Kd: it is the concentration at which binding is half-saturated. Higher therefore signals weaker binding. The term EC50 denotes the concentration that produces a half-maximal response. The term IC50 denotes the concentration needed to halve the response being measured. Molecule `CC(C)(C)OC(=O)N1CCC(n2c(=O)c(-c3c(F)ccc(NS(=O)(=O)N4CC[C@@H](F)C4)c3F)cc3cnc(NCC4CC4)nc32)C1` (mixture of isomers) [Example 38, tert-Butyl (3RS)-3-[2-(cyclopropylmethylamino)-6-[2,6-difluoro-3-[[(3R)-3-fluoropyrrolidin-1-yl]sulfonylamino]phenyl]-7-oxopyrido[2,3-d]pyrimidin-8-yl]pyrrolidine-1-carboxylate] returned a Kd at BRAF of 1.42 µM. At BRAF V660E, this molecule yielded a Kd of 2.82 µM. Further, in test [1], the EC50 is no less than 10 µM and the “Fold Selectivity HCT-116 EC50-50/ A375” value amounted to 12.1. For the same molecule, in test [2], the IC50 turned out to be 0.826 µM.

For the molecule `Cl.O=c1c(-c2c(F)ccc(NS(=O)(=O)N3CC[C@@H](F)C3)c2F)cc2cnc(NCC3CC3)nc2n1C1CCNC1` (mixture of isomers) [Example 40, (3R)-N-[3-[2-(cyclopropylmethylamino)-7-oxo-8-[(3RS)-pyrrolidin-3-yl]pyrido[2,3-d]pyrimidin-6-yl]-2,4-difluorophenyl]-3-fluoropyrrolidine-1-sulfonamide hydrochloride], the Kd on BRAF came to 0.145 µM. The molecule also yielded a dissociation constant (Kd) at BRAF V660E of 0.408 µM. Besides, in test [1], the EC50 was no less than 10 µM and the “Fold Selectivity HCT-116 EC50-50/ A375” value came to 2.6. For the same molecule, in test [2], the IC50 stood at 3.81 µM.

The molecule `CC(=O)N1CCC(n2c(=O)c(-c3c(F)ccc(NS(=O)(=O)N4CC[C@@H](F)C4)c3F)cc3cnc(NCC4CC4)nc32)C1` (mixture of isomers) [Example 42, (3R)-N-[3-[8-((3RS)-1-acetylpyrrolidin-3-yl)-2-(cyclopropylmethylamino)-7-oxopyrido[2,3-d]pyrimidin-6-yl]-2,4-difluorophenyl]-3-fluoropyrrolidine-1-sulfonamide] showed a Kd at BRAF of 0.0226 µM. The Kd on BRAF V660E worked out at 0.0504 µM. Moreover, in test [1], the EC50 came out at 4.84 µM and the “Fold Selectivity HCT-116 EC50-50/ A375” value came to 12.8. Moreover, in test [2], the IC50 turned out to be 0.378 µM.

On BRAF, `CC(=O)N[C@@H]1CC[C@@H](Nc2ncc3cc(-c4c(F)ccc(NS(=O)(=O)N5CC[C@@H](F)C5)c4F)c(=O)n(C)c3n2)C1` (racemic) [Example 23, N-[(1R,3R)-3-[[6-[2,6-difluoro-3-[[(3R)-3-fluoropyrrolidin-1-yl]sulfonylamino]phenyl]-8-methyl-7-oxopyrido[2,3-d]pyrimidin-2-yl]amino]cyclopentyl]acetamide AND N-[(1S,3S)-3-[[6-[2,6-difluoro-3-[[(3R)-3-fluoropyrrolidin-1-yl]sulfonylamino]phenyl]-8-methyl-7-oxopyrido[2,3-d]pyrimidin-2-yl]amino]cyclopentyl]acetamide] came in with a Kd of 0.0075 µM. The molecule also displayed a Kd at BRAF V660E of 0.0211 µM. In test [1], the EC50 was 4.1 µM and the “Fold Selectivity HCT-116 EC50-50/ A375” value came to 59.4. Besides, the IC50 in test [2] was 0.069 µM.

On BRAF, `Cn1c(=O)c(-c2c(F)ccc(NS(=O)(=O)N3CC[C@@H](F)C3)c2F)cc2cnc(NCCC3CCN(C(=O)OC(C)(C)C)CC3)nc21` [Example 1, tert-Butyl 4-[2-[[6-[2,6-difluoro-3-[[(3R)-3-fluoropyrrolidin-1-yl]sulfonylamino]phenyl]-8-methyl-7-oxopyrido[2,3-d]pyrimidin-2-yl]amino]ethyl]piperidine-1-carboxylate] returned a dissociation constant Kd of 0.108 µM. In addition, the Kd at BRAF V660E came out at 0.19 µM. For the same molecule, in test [1], the EC50 was determined as 3.36 µM and the “Fold Selectivity HCT-116 EC50-50/ A375” value is listed as 53.1. In addition, in test [2], the IC50 came out at 0.0633 µM.

In turn, `Cn1c(=O)c(-c2c(F)ccc(NS(=O)(=O)N3CC[C@@H](F)C3)c2F)cc2cnc(NCCc3ccccc3)nc21` [Example 2, (3R)-N-[2,4-difluoro-3-[8-methyl-7-oxo-2-(2-phenylethylamino)pyrido[2,3-d]pyrimidin-6-yl]phenyl]-3-fluoropyrrolidine-1-sulfonamide] gave a Kd at BRAF of 0.0079 µM. The affinity at BRAF V660E, expressed as Kd, was 0.023 µM. In addition, in test [1], the EC50 is 0.491 µM and the “Fold Selectivity HCT-116 EC50-50/ A375” value amounted to 81.8. In addition, in test [2], the IC50 came to 0.006 µM.

Turning to `Cn1c(=O)c(-c2c(F)ccc(NS(=O)(=O)N3CC[C@@H](F)C3)c2F)cc2cnc(NCCCC(=O)OC(C)(C)C)nc21` [Example 3, tert-butyl 4-[[6-[2,6-difluoro-3-[[(3R)-3-fluoropyrrolidin-1-yl]sulfonylamino]phenyl]-8-methyl-7-oxopyrido[2,3-d]pyrimidin-2-yl]amino]butanoate], the Kd at BRAF is 0.0151 µM; at BRAF V660E it was 0.0474 µM. In addition, the EC50 in test [1] came out at 0.917 µM. Besides, the “Fold Selectivity HCT-116 EC50-50/ A375” value in test [1] was 69.8. For the same molecule, the 50% inhibitory concentration (IC50) in test [2] was found to be 0.0131 µM.

On BRAF, `Cn1c(=O)c(-c2c(F)ccc(NS(=O)(=O)N3CC[C@@H](F)C3)c2F)cc2cnc(NCCOCCOCCO)nc21` [Example 4, (3R)-N-[2,4-difluoro-3-[2-[2-[2-(2-hydroxyethoxy)ethoxy]ethylamino]-8-methyl-7-oxopyrido[2,3-d]pyrimidin-6-yl]phenyl]-3-fluoropyrrolidine-1-sulfonamide] showed a Kd of 0.0399 µM. This molecule also displayed a Kd on BRAF V660E of 0.099 µM. Further, in test [1], the EC50 is no less than 10 µM and the “Fold Selectivity HCT-116 EC50-50/ A375” value is reported as greater than 211.0. Besides, the IC50 in test [2] came to 0.0474 µM.

`Cn1c(=O)c(-c2c(F)ccc(NS(=O)(=O)N3CC[C@@H](F)C3)c2F)cc2cnc(NCCCc3ccccc3)nc21` [Example 5, (3R)-N-[2,4-difluoro-3-[8-methyl-7-oxo-2-(3-phenylpropylamino)pyrido[2,3-d]pyrimidin-6-yl]phenyl]-3-fluoropyrrolidine-1-sulfonamide] registered a Kd at BRAF of 0.0465 µM. The molecule also yielded a Kd at BRAF V660E of 0.115 µM. Also, in test [1], the half-maximal effective concentration (EC50) amounted to 0.394 µM and the “Fold Selectivity HCT-116 EC50-50/ A375” value stood at 9.2. The IC50 in test [2] turned out to be 0.0426 µM.

`Cn1c(=O)c(-c2c(F)ccc(NS(=O)(=O)N3CC[C@@H](F)C3)c2F)cc2cnc(NCCOc3ccccc3)nc21` [Example 6, (3R)-N-[2,4-difluoro-3-[8-methyl-7-oxo-2-(2-phenoxyethylamino)pyrido[2,3-d]pyrimidin-6-yl]phenyl]-3-fluoropyrrolidine-1-sulfonamide]: the Kd on BRAF was found to be 0.0357 µM. On BRAF V660E, this molecule gave a Kd of 0.12 µM. For the same molecule, in test [1], the EC50 worked out at 0.711 µM and the “Fold Selectivity HCT-116 EC50-50/ A375” value is recorded as 52.9. The IC50 in test [2] was 0.0134 µM.

As for `Cn1c(=O)c(-c2c(F)ccc(NS(=O)(=O)N3CC[C@@H](F)C3)c2F)cc2cnc(NCCN3CCN(C(=O)OC(C)(C)C)CC3)nc21` [Example 45, tert-butyl 4-[2-[[6-[2,6-difluoro-3-[[(3R)-3-fluoropyrrolidin-1-yl]sulfonylamino]phenyl]-8-methyl-7-oxopyrido[2,3-d]pyrimidin-2-yl]amino]ethyl]piperazine-1-carboxylate], in test [1], the EC50 came out at 1.48 µM and the “Fold Selectivity HCT-116 EC50-50/ A375” value is on record as 55.1. The IC50 in test [2] was determined as 0.0268 µM.
